Source: PubChem BioAssay (NCI)
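The compound was tested at five concentrations on cells cultured in 96-well plates, with a 48-hour exposure period. GI50 marks 50% less growth. TGI: concentration producing complete growth inhibition.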

What was measured:
Experiment in all cases: NCI anticancer screen, dose series, 48 h
MDA-MB-435 = tested on: MDA-MB-435
MOLT-4 leukemia = tested on: MOLT-4 leukemia
OVCAR-8 ovarian = tested on: OVCAR-8 ovarian
MDA-MB-231 breast = tested on: MDA-MB-231 breast
CCRF-CEM leukemia = tested on: CCRF-CEM leukemia
U251 CNS = tested on: U251 CNS
EKVX NSCLC = tested on: EKVX NSCLC
HL-60(TB) leukemia = tested on: HL-60(TB) leukemia
NCI-H23 lung = tested on: NCI-H23 lung
SNB-19 CNS = tested on: SNB-19 CNS
NCI-H226 lung = tested on: NCI-H226 lung
SK-MEL-5 melanoma = tested on: SK-MEL-5 melanoma
HS 578T breast = tested on: HS 578T breast
HCT-116 colon = tested on: HCT-116 colon
IGROV1 ovarian = tested on: IGROV1 ovarian
UO-31 renal = tested on: UO-31 renal
K-562 leukemia = tested on: K-562 leukemia
NCI/ADR-RES ovarian = tested on: NCI/ADR-RES ovarian
OVCAR-3 ovarian = tested on: OVCAR-3 ovarian
OVCAR-5 ovarian = tested on: OVCAR-5 ovarian
UACC-257 melanoma = tested on: UACC-257 melanoma
LOX IMVI melanoma = tested on: LOX IMVI melanoma
SF-268 CNS = tested on: SF-268 CNS
A549 NSCLC = tested on: A549 NSCLC
COLO 205 colon = tested on: COLO 205 colon
NCI-H522 lung = tested on: NCI-H522 lung
TK-10 renal = tested on: TK-10 renal
MALME-3M melanoma = tested on: MALME-3M melanoma
SF-539 CNS = tested on: SF-539 CNS
KM12 colon = tested on: KM12 colon
UACC-62 melanoma = tested on: UACC-62 melanoma
SN12C renal = tested on: SN12C renal
CAKI-1 renal = tested on: CAKI-1 renal
SK-OV-3 ovarian = tested on: SK-OV-3 ovarian
BT-549 breast = tested on: BT-549 breast
MCF7 breast = tested on: MCF7 breast
ACHN renal = tested on: ACHN renal
SNB-75 CNS = tested on: SNB-75 CNS
786-0 renal = tested on: 786-0 renal
SW-620 colon = tested on: SW-620 colon
HOP-62 NSCLC = tested on: HOP-62 NSCLC
HCT-15 colon = tested on: HCT-15 colon
HCC-2998 colon = tested on: HCC-2998 colon
PC-3 prostate = tested on: PC-3 prostate
SK-MEL-28 melanoma = tested on: SK-MEL-28 melanoma
DU-145 prostate = tested on: DU-145 prostate
OVCAR-4 ovarian = tested on: OVCAR-4 ovarian
SR leukemia = tested on: SR leukemia
SF-295 CNS = tested on: SF-295 CNS
A498 renal = tested on: A498 renal
T-47D breast = tested on: T-47D breast
M14 melanoma = tested on: M14 melanoma
NCI-H460 lung = tested on: NCI-H460 lung
HT29 colon = tested on: HT29 colon
SK-MEL-2 melanoma = tested on: SK-MEL-2 melanoma
RXF 393 renal = tested on: RXF 393 renal

`ClCCn1cnc2c(SCc3ccccc3Cl)ncnc21` showed a GI50 (MDA-MB-435) of 0.779 µM, a TGI (MDA-MB-435) of 50.7 µM and a GI50 (MOLT-4 leukemia) of 0.176 µM. For the same compound, the TGI (MOLT-4 leukemia) was 9.4 µM, the GI50 (OVCAR-8 ovarian) was 0.576 µM and the TGI (OVCAR-8 ovarian) was > 90.5 µM. For the same compound, the GI50 (MDA-MB-231 breast) was 5.77 µM, the TGI (MDA-MB-231 breast) was > 100 µM and the GI50 (CCRF-CEM leukemia) was 2 µM. For the same compound, the TGI (CCRF-CEM leukemia) was 36.5 µM, the GI50 (U251 CNS) was 0.0925 µM and the TGI (U251 CNS) was > 89.8 µM. For the same compound, the GI50 (EKVX NSCLC) was 13.8 µM, the TGI (EKVX NSCLC) was > 78 µM and the GI50 (HL-60(TB) leukemia) was 0.416 µM. For the same compound, the TGI (HL-60(TB) leukemia) was 8.94 µM, the GI50 (NCI-H23 lung) was 9.69 µM and the TGI (NCI-H23 lung) was > 73.7 µM. The GI50 (SNB-19 CNS) was 1.98 µM, the TGI (SNB-19 CNS) was > 100 µM and the GI50 (NCI-H226 lung) was 3.52 µM. The TGI (NCI-H226 lung) was 59.9 µM, the GI50 (SK-MEL-5 melanoma) was 0.272 µM and the TGI (SK-MEL-5 melanoma) was 43.3 µM. For the same compound, the GI50 (HS 578T breast) was 19.4 µM, the TGI (HS 578T breast) was 89 µM and the GI50 (HCT-116 colon) was 0.0679 µM. The TGI (HCT-116 colon) was 21 µM, the GI50 (IGROV1 ovarian) was 0.51 µM and the TGI (IGROV1 ovarian) was > 41.6 µM. It also gave a GI50 (UO-31 renal) of 0.883 µM, a TGI (UO-31 renal) of 41.8 µM and a GI50 (K-562 leukemia) of 0.0755 µM. The TGI (K-562 leukemia) was > 59.1 µM, the GI50 (NCI/ADR-RES ovarian) was 1.2 µM and the TGI (NCI/ADR-RES ovarian) was > 52.5 µM. For the same compound, the GI50 (OVCAR-3 ovarian) was 9.31 µM, the TGI (OVCAR-3 ovarian) was 29.8 µM and the GI50 (OVCAR-5 ovarian) was 37.8 µM. For the same compound, the TGI (OVCAR-5 ovarian) was > 100 µM, the GI50 (UACC-257 melanoma) was 2.64 µM and the GI50 (LOX IMVI melanoma) was 0.0756 µM. For the same compound, the TGI (LOX IMVI melanoma) was 11.9 µM, the GI50 (SF-268 CNS) was 4.87 µM and the TGI (SF-268 CNS) was > 84.7 µM. The GI50 (A549 NSCLC) was 0.278 µM, the TGI (A549 NSCLC) was > 39.6 µM and the GI50 (COLO 205 colon) was 2.01 µM. For the same compound, the TGI (COLO 205 colon) was > 100 µM, the GI50 (NCI-H522 lung) was 2.64 µM and the TGI (NCI-H522 lung) was > 71.1 µM. For the same compound, the GI50 (TK-10 renal) was 5.44 µM, the TGI (TK-10 renal) was > 83.1 µM and the GI50 (MALME-3M melanoma) was 14.2 µM. It also gave a TGI (MALME-3M melanoma) of 45.4 µM, a GI50 (SF-539 CNS) of 0.267 µM and a TGI (SF-539 CNS) of 68.8 µM. For the same compound, the GI50 (KM12 colon) was 0.789 µM, the TGI (KM12 colon) was 46.6 µM and the GI50 (UACC-62 melanoma) was 0.529 µM. The TGI (UACC-62 melanoma) was > 48.1 µM, the GI50 (SN12C renal) was 1.26 µM and the TGI (SN12C renal) was > 100 µM. For the same compound, the GI50 (CAKI-1 renal) was 0.272 µM, the TGI (CAKI-1 renal) was 24.7 µM and the GI50 (SK-OV-3 ovarian) was 9.72 µM. The TGI (SK-OV-3 ovarian) was > 100 µM, the GI50 (BT-549 breast) was 8.79 µM and the TGI (BT-549 breast) was 53.6 µM. The GI50 (MCF7 breast) was 0.446 µM, the TGI (MCF7 breast) was > 100 µM and the GI50 (ACHN renal) was 0.51 µM. The TGI (ACHN renal) was > 100 µM, the GI50 (SNB-75 CNS) was 6.69 µM and the TGI (SNB-75 CNS) was > 63.2 µM. The GI50 (786-0 renal) was 0.671 µM, the TGI (786-0 renal) was 20.4 µM and the GI50 (SW-620 colon) was 0.511 µM. For the same compound, the TGI (SW-620 colon) was > 100 µM, the GI50 (HOP-62 NSCLC) was 2.56 µM and the TGI (HOP-62 NSCLC) was > 100 µM. For the same compound, the GI50 (HCT-15 colon) was 0.0383 µM, the TGI (HCT-15 colon) was > 100 µM and the GI50 (HCC-2998 colon) was 1.75 µM. The GI50 (PC-3 prostate) was 0.717 µM, the TGI (PC-3 prostate) was 46.6 µM and the GI50 (SK-MEL-28 melanoma) was 5.3 µM. The TGI (SK-MEL-28 melanoma) was > 83.8 µM, the GI50 (DU-145 prostate) was 0.754 µM and the TGI (DU-145 prostate) was 25 µM. The GI50 (OVCAR-4 ovarian) was 14.4 µM, the TGI (OVCAR-4 ovarian) was > 100 µM and the GI50 (SR leukemia) was 0.0609 µM. The TGI (SR leukemia) was 13.1 µM, the GI50 (SF-295 CNS) was 0.184 µM and the TGI (SF-295 CNS) was 20.2 µM. For the same compound, the GI50 (A498 renal) was 24.5 µM, the TGI (A498 renal) was > 93 µM and the GI50 (T-47D breast) was 13.7 µM. The TGI (T-47D breast) was 79.5 µM, the GI50 (M14 melanoma) was 7.5 µM and the TGI (M14 melanoma) was > 76.6 µM. The GI50 (NCI-H460 lung) was 0.0533 µM, the TGI (NCI-H460 lung) was 16.4 µM and the GI50 (HT29 colon) was 0.191 µM. The TGI (HT29 colon) was > 100 µM, the GI50 (SK-MEL-2 melanoma) was 12.7 µM and the TGI (SK-MEL-2 melanoma) was 54.4 µM. For the same compound, the GI50 (RXF 393 renal) was 1.35 µM and the TGI (RXF 393 renal) was 26.4 µM.
